{"source": "patent US9993494B2", "about": "“Compositions and methods for treating fibrotic disease” (eFFECTOR Therapeutics, Inc., priority 2014, dated 2018)", "test_system": "normal human lung fibroblasts", "experiment": "Ribosomal profiling: translational efficiency in TGFβ-treated fibroblasts", "format": "cell-based", "how_it_was_run": "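Genome-wide RPF and total RNA libraries (ARTseq, RNA-Seq) were made from lysates of cycloheximide-treated, PBS-washed cells. After trimming and human-genome mapping, per-gene coding-region counts were compared between RPF and RNA for translational efficiency. Genes scoring low in either fraction were dropped.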"}
{"substance": "TGFβ", "values": [{"measurement": "Log2 TE KIAA0408", "setting": "ENSG00000189367, 5 replicates", "value": "−1.283"}, {"measurement": "Log2 TE ZBTB44", "setting": "ENSG00000196323, 5 replicates", "value": "−1.222"}, {"measurement": "Log2 TE NACA", "setting": "ENSG00000196531, 5 replicates", "value": 1.083}, {"measurement": "change in translational profile of NACA caused by TGFβ", "setting": "ENSG00000196531, Control vs. TGFβ", "value": "E (E = <1.5 to 2.5)"}, {"measurement": "Log2 TE ADH1B", "setting": "ENSG00000196616, 5 replicates", "value": "−2.795"}, {"measurement": "Log2 TE TOMM7", "setting": "ENSG00000196683, 5 replicates", "value": 1.126}, {"measurement": "change in translational profile of LAMB3 caused by TGFβ", "setting": "ENSG00000196878, Control vs. TGFβ", "value": "D (D = <1.0 to 1.5)"}, {"measurement": "Log2 TE PCBP2", "setting": "ENSG00000197111, 5 replicates", "value": 1.293}, {"measurement": "change in translational profile of PCBP2 caused by TGFβ", "setting": "ENSG00000197111, Control vs. TGFβ", "value": "E (E = <1.5 to 2.5)"}, {"measurement": "Log2 TE MAP3K5", "setting": "ENSG00000197442, 5 replicates", "value": "−2.0153"}, {"measurement": "change in translational profile of MAP3K5 caused by TGFβ", "setting": "ENSG00000197442, Control vs. TGFβ", "value": "B (B = <−1.5 to −2.5)"}, {"measurement": "Log2 TE RPS26", "setting": "ENSG00000197728, 5 replicates", "value": 1.09}, {"measurement": "Log2 TE RPL37A", "setting": "ENSG00000197756, 5 replicates", "value": 2.029}, {"measurement": "change in translational profile of RPL37A caused by TGFβ", "setting": "ENSG00000197756, Control vs. TGFβ", "value": "E (E = <1.5 to 2.5)"}, {"measurement": "Log2 TE RPL12", "setting": "ENSG00000197958, 5 replicates", "value": 1.878}, {"measurement": "change in translational profile of RPL12 caused by TGFβ", "setting": "ENSG00000197958, Control vs. TGFβ", "value": "E (E = <1.5 to 2.5)"}, {"measurement": "Log2 TE DNM3", "setting": "ENSG00000197959, 5 replicates", "value": "−1.161"}, {"measurement": "Log2 TE RPS4X", "setting": "ENSG00000198034, 5 replicates", "value": 1.534}, {"measurement": "Log2 TE LPAR1", "setting": "ENSG00000198121, 5 replicates", "value": "−1.448"}, {"measurement": "change in translational profile of LPAR1 caused by TGFβ", "setting": "ENSG00000198121, Control vs. TGFβ", "value": "C (C = <−1.0 to −1.5)"}, {"measurement": "Log2 TE ZNF607", "setting": "ENSG00000198182, 5 replicates", "value": "−1.108"}, {"measurement": "Log2 TE RPL23A", "setting": "ENSG00000198242, 5 replicates", "value": 1.395}, {"measurement": "change in translational profile of RPL23A caused by TGFβ", "setting": "ENSG00000198242, Control vs. TGFβ", "value": "E (E = <1.5 to 2.5)"}, {"measurement": "Log2 TE TPM2", "setting": "ENSG00000198467, 5 replicates", "value": 1.077}, {"measurement": "change in translational profile of PLN caused by TGFβ", "setting": "ENSG00000198523, Control vs. TGFβ", "value": "F (F = >2.5)"}, {"measurement": "Log2 TE RPL10A", "setting": "ENSG00000198755, 5 replicates", "value": 1.51}, {"measurement": "change in translational profile of RPL10A caused by TGFβ", "setting": "ENSG00000198755, Control vs. TGFβ", "value": "E (E = <1.5 to 2.5)"}, {"measurement": "Log2 TE CES1", "setting": "ENSG00000198848, 5 replicates", "value": 1.084}, {"measurement": "change in translational profile of CES1 caused by TGFβ", "setting": "ENSG00000198848, Control vs. TGFβ", "value": "E (E = <1.5 to 2.5)"}, {"measurement": "Log2 TE RPL39", "setting": "ENSG00000198918, 5 replicates", "value": 1.536}, {"measurement": "change in translational profile of RPL39 caused by TGFβ", "setting": "ENSG00000198918, Control vs. TGFβ", "value": "E (E = <1.5 to 2.5)"}, {"measurement": "Log2 TE GPRASP1", "setting": "ENSG00000198932, 5 replicates", "value": "−1.239"}, {"measurement": "Log2 TE RORB", "setting": "ENSG00000198963, 5 replicates", "value": "−1.766"}, {"measurement": "Log2 TE CARD16", "setting": "ENSG00000204397, 5 replicates", "value": "−1.076"}, {"measurement": "change in translational profile of CARD16 caused by TGFβ", "setting": "ENSG00000204397, Control vs. TGFβ", "value": "B (B = <−1.5 to −2.5)"}, {"measurement": "Log2 TE MICA", "setting": "ENSG00000204520, 5 replicates", "value": 1.143}, {"measurement": "change in translational profile of MICA caused by TGFβ", "setting": "ENSG00000204520, Control vs. TGFβ", "value": "E (E = <1.5 to 2.5)"}, {"measurement": "Log2 TE GNB2L1", "setting": "ENSG00000204628, 5 replicates", "value": 1.732}, {"measurement": "change in translational profile of GNB2L1 caused by TGFβ", "setting": "ENSG00000204628, Control vs. TGFβ", "value": "E (E = <1.5 to 2.5)"}, {"measurement": "Log2 TE RPS29", "setting": "ENSG00000213741, 5 replicates", "value": 1.571}, {"measurement": "Log2 TE RPL17", "setting": "ENSG00000215472, 5 replicates", "value": 1.299}, {"measurement": "change in translational profile of RPL17 caused by TGFβ", "setting": "ENSG00000215472, Control vs. TGFβ", "value": "E (E = <1.5 to 2.5)"}, {"measurement": "Log2 TE UBA52", "setting": "ENSG00000221983, 5 replicates", "value": 1.125}, {"measurement": "Log2 TE BTBD19", "setting": "ENSG00000222009, 5 replicates", "value": 1.524}, {"measurement": "Log2 TE RPL41", "setting": "ENSG00000229117, 5 replicates", "value": 1.474}, {"measurement": "change in translational profile of RPL41 caused by TGFβ", "setting": "ENSG00000229117, Control vs. TGFβ", "value": "E (E = <1.5 to 2.5)"}, {"measurement": "Log2 TE RPS18", "setting": "ENSG00000231500, 5 replicates", "value": 2.003}, {"measurement": "Log2 TE C17orf108", "setting": "ENSG00000232859, 5 replicates", "value": "−1.329"}, {"measurement": "Log2 TE RPS28", "setting": "ENSG00000233927, 5 replicates", "value": 1.937}, {"measurement": "Log2 TE ARPC1A", "setting": "ENSG00000241685, 5 replicates", "value": 1.288}, {"measurement": "change in translational profile of ARPC1A caused by TGFβ", "setting": "ENSG00000241685, Control vs. TGFβ", "value": "D (D = <1.0 to 1.5)"}, {"measurement": "Log2 TE IFITM10", "setting": "ENSG00000244242, 5 replicates", "value": "−1.299"}, {"measurement": "Log2 TE FMN1", "setting": "ENSG00000248905, 5 replicates", "value": "−1.906"}, {"measurement": "Log2 TE CHCHD10", "setting": "ENSG00000250479, 5 replicates", "value": 2.519}, {"measurement": "change in translational profile of CHCHD10 caused by TGFβ", "setting": "ENSG00000250479, Control vs. TGFβ", "value": "F (F = >2.5)"}, {"measurement": "Log2 TE SEPP1", "setting": "ENSG00000250722, 5 replicates", "value": "−1.035"}, {"measurement": "Log2 TE EEF1G", "setting": "ENSG00000254772, 5 replicates", "value": 1.551}, {"measurement": "change in translational profile of EEF1G caused by TGFβ", "setting": "ENSG00000254772, Control vs. TGFβ", "value": "E (E = <1.5 to 2.5)"}, {"measurement": "Log2 TE TEN1", "setting": "ENSG00000257949, 5 replicates", "value": 1.361}]}
